Experiments:
PC6 plasma cell tumour = assay: Tumour photo-necrosis: depth of tumour necrosis after sensitiser injection and 10 J cm^-2 light; format: in vivo, female BALB/c mice; conditions: mean ± SE
Experimental: (§1) the method of testing is that the PC6 plasma cell tumour, obtained initially from the Chester Beatty Research Institute, was grown by inoculating 0.3-0.6×10^6 cells subcutaneously in female BALB/c mice. It was used about two weeks later, when it was […] in its longest diameter and […] deep. Sensitisers were injected in dimethyl sulphoxide intra-peritoneally (2.5 ul g^-1) and, twenty four hours later, skin over the tumours was depilated, the mice anaesthetised and tumours exposed to 10 J cm^-2 light. Wavelengths for illumination were the longest wavelength absorption peaks in the red in solutions of sensitiser in fetal calf serum, and were 652-653 nm for the compounds of Examples 1 to 3 and 741 nm for the compound of Example 4. The light source was a copper vapour laser with an output of 10 to 12 watts (Cu 10 laser, Oxford Lasers Ltd) pumping a D2 10K dye laser (Oxford Lasers Ltd). The dye was rhodamine 640 (Applied Photophysics Ltd) for illumination at 652-653 nm and LDS-722 for illumination at 741 nm. Light intensity at the tumour surface was kept below 0.3 W cm^-2, where thermal effects were undetectable.
Twenty four hours after illumination […], 0.2 ml 1% Evans blue (Sigma) in saline was given intravenously and tumours were removed one hour later and fixed in formolsaline. The fixed tumours were sliced at right angles to the surface and the depth of necrosis measured with a dissecting microscope fitted with an eye piece graticule.

[1] = Longest wavelength absorption peak in the red in fetal calf serum; format: physicochemical; conditions: in solutions of sensitiser in fetal calf serum
Experimental: as §1

Tumour = assay: Degree of tumour necrosis obtained at an equivalent muscle damage level; format: in vivo; conditions: for tumour necrosis for specified levels of muscle damage, in words: versus corresponding compounds of EP-A-0,186,962
From the text: (§2) In preliminary tests the new compounds have shown similar results as regards skin sensitivity to those given in EP-A-0,186,962. Moreover, the para and meta dihydroxy compounds have been shown specifically, improved properties in other respects which may be expected in all the compounds.

[2] = Muscle oedema (muscle damage) for specified depths of tumour necrosis; format: in vivo; conditions: for muscle damage for specified levels of tumour necrosis, in words: versus corresponding compounds of EP-A-0,186,962
From the text: as §2

[3] = at muscle oedema 10% increase in muscle weight
[4] = at muscle oedema 20% increase in muscle weight
[5] = at depth of tumour necrosis 3.5 mm
[6] = at depth of tumour necrosis 4.0 mm
[7] = at depth of tumour necrosis 5.0 mm
[8] = at depth of tumour necrosis 5.5 mm
[9] = at depth of tumour necrosis 3.0 mm

SMILES	Tumour Necrosis (Tumour; [3])	Tumour Necrosis (Tumour; [4])	tumour necrosis for specified levels of muscle damage, in words (Tumour)	Muscle Oedema (% Increase in Weight) [2, 5]	Muscle Oedema (% Increase in Weight) [2, 6]	Muscle Oedema (% Increase in Weight) [2, 7]	Muscle Oedema (% Increase in Weight) [2, 8]	muscle damage for specified levels of tumour necrosis, in words [2]	Muscle Oedema (% Increase in Weight) [2, 9]	further results
Oc1cccc(-c2c3nc(c(-c4cccc(O)c4)c4ccc([nH]4)c(-c4cccc(O)c4)c4nc(c(-c5cccc(O)c5)c5ccc2[nH]5)CC4)CC3)c1 [Example 4, 7,8,17,18-tetrahydro-5,10,15,20-tetra(m-hydroxyphenyl) porphyrin]	–	–	–	–	–	–	–	–	–	Depth of Tumour Necrosis (PC6 plasma cell tumour; dose 0.39 μM/Kg i.p., 741 nm): 5.22 ± 1.21 mm; longest wavelength absorption peak in the red [1]: 741 nm
Oc1cccc(-c2c3nc(c(-c4cccc(O)c4)c4ccc([nH]4)c(-c4cccc(O)c4)c4nc(c(-c5cccc(O)c5)c5[nH]c2CC5)C=C4)C=C3)c1 [Example 2, 2,3-dihydro-5,10,15,20-tetra(m-hydroxyphenyl) porphyrin]	5.5-6 mm	6.5 mm	more tumour necrosis than the corresponding compounds of EP-A-0,186,962	2%	3%	5%	7%	considerably less muscle damage than the corresponding compounds of EP-A-0,186,962	–	Depth of Tumour Necrosis (PC6 plasma cell tumour; dose 0.375 μM/Kg i.p., 652 nm): 3.79 ± 0.28 mm; Depth of Tumour Necrosis (PC6 plasma cell tumour; dose 0.75 μM/Kg i.p., 652 nm): 5.41 ± 0.39 mm
Oc1cccc(-c2c3nc(c(-c4cccc(O)c4)c4ccc([nH]4)c(-c4cccc(O)c4)c4nc(c(-c5cccc(O)c5)c5ccc2[nH]5)C=C4)C=C3)c1 [Meta (Compounds of EP-A-0186962), 5,10,15,20-tetra(m-hydroxyphenyl) porphyrin, reference compound]	3.5 mm	4.0 mm	–	10%	20%	36%	49%	–	–	–
Oc1ccc(-c2c3nc(c(-c4ccc(O)cc4)c4ccc([nH]4)c(-c4ccc(O)cc4)c4nc(c(-c5ccc(O)cc5)c5ccc2[nH]5)CC4)C=C3)cc1 [Example 1, 2,3-dihydro-5,10,15,20-tetra(p-hydroxyphenyl) porphyrin]	3.5 mm	~4.0 mm	more tumour necrosis than the corresponding compounds of EP-A-0,186,962	10%	–	–	–	considerably less muscle damage than the corresponding compounds of EP-A-0,186,962	8%	Depth of Tumour Necrosis (PC6 plasma cell tumour; dose 3.125 μM/Kg i.p., 653 nm): 2.13 ± 0.50 mm; Depth of Tumour Necrosis (PC6 plasma cell tumour; dose 6.25 μM/Kg i.p., 653 nm): 3.50 ± 0.54 mm
Oc1ccc(-c2c3nc(c(-c4ccc(O)cc4)c4ccc([nH]4)c(-c4ccc(O)cc4)c4nc(c(-c5ccc(O)cc5)c5ccc2[nH]5)C=C4)C=C3)cc1 [Para (Compounds of EP-A-0186962), 5,10,15,20-Tetra(p-hydroxyphenyl)porphyrin, reference compound]	2.25 mm	3.0 mm	–	22%	–	–	–	–	20%	–
Oc1ccccc1-c1c2nc(c(-c3ccccc3O)c3ccc([nH]3)c(-c3ccccc3O)c3nc(c(-c4ccccc4O)c4[nH]c1CC4)C=C3)C=C2 [Example 3, 2,3-dihydro-5,10,15,20-tetra (o-hydroxyphenyl) porphyrin]	–	–	–	–	–	–	–	–	–	Depth of Tumour Necrosis (PC6 plasma cell tumour; dose 3.125 μM/Kg i.p., 652 nm): 3.69 ± 0.74 mm; Depth of Tumour Necrosis (PC6 plasma cell tumour; dose 6.25 μM/Kg i.p., 652 nm): 4.16 ± 0.27 mm
